# Reference: patent US20250017211A1, “SOLID P[…] CONTROL COMPOSITIONS AND METHODS” (Control Solutions, Inc., priority 2021, published 2025)
# Assays:
# [1] = tested on: white grubs (Japanese beetles and masked chafers); assay: Preventive control of white grubs in Kentucky bluegrass, second study; assay type: in vivo, scarab beetle larvae; conditions: instant (second) study
# Description: As with the study of Example 5 above, the purpose of this study was to evaluate rates and timings of novaluron and a wetting agent (Syringe) for controlling white grubs in turfgrass. A trial was conducted on Kentucky bluegrass maintained at a height of 7.6 cm. A randomized complete block design with 4 replications of 5′×5′ plots were used. Treatments were applied and all plots were watered in (0.1″) immediately after application. Treatments and application dates were as described in Table 4. Caged Japanese beetle adults (20 male: 20 female) were placed within each plot. Plots were assessed using a sod cutter set to 3″ depth. All scarab beetle larvae recovered were identified to genus level.
# [2] = tested on: all white grubs (scarab larvae); assay: Preventive control of scarab larvae in Kentucky bluegrass, first study, all white grubs; assay type: in vivo, scarab beetle larvae; conditions: study of Example 5
# Description: The primary objectives of this study were to evaluate the influence of application rate and timing on the efficacy of novaluran applied preventively against scarab larvae in cool-season turfgrass. The experiment was located on a stand of turfgrass consisting primarily of Kentucky bluegrass maintained at 7.6 cm. Plots measuring 5×5 ft were arranged in a randomized complete-block design with 2 ft alleys between plots. […] Each treatment was replicated 4 times. Plots were irrigated Immediately after each set of applications (0.1″).
# Japanese beetle larval infestations were created by driving two, 20.3 cm diameter PVC cylinders into each plot along its mid-line and caging one group of 40 Japanese beetle adults (50:50 sex ratio) within each cylinder during early July. Scarab larval populations were assessed Oct. 12-16, 2019 using a sod cutter to remove a strip of sod lying directly beneath the caging area of each plot and examining the soil to a depth of 3 inches. All scarab larvae recovered from the plots were identified to genus level, counted and recorded. Variation in scarab larval populations was examined using main effects ANOVA and treatment means were compared using Fisher's LSD test (α=0.05). Treatments and application dates were as described in Table 3.
structure (smiles),measurement,setting,value
"O=C(NC(=O)c1c(F)cccc1F)Nc1ccc(OC(F)(F)C(F)OC(F)(F)F)c(Cl)c1 (stereo not shown) [Novaluron, novaluron]",Control,[1]; 0.675 lb ai/A,84-90%
same,Control,[1]; 0.9 lb ai/A,84-90%
same,Control,[2]; 0.675 lb ai/A,46-72%
same,Control,[2]; 0.9 lb ai/A,45-56%
